From patent publication US9161895B1, “Compositions and methods for improving overall tooth health and appearance” (The Procter & Gamble Company, priority 2008, dated 2015)

Tests used:
[1] = in vitro erosion cycling protocol (citric acid challenge, transverse microradiography); parameters: species or system human; conditions: for Surface Loss: aqueous solutions of test organophosphates (control: dentifrice slurry 1:3) in pooled human saliva, 1% citric acid 10 min, 4 treatments/day, 5 days, depth of total mineral loss by TMR; for % reduction vs. regular F control: reduction in surface mineral loss relative to Fluoride toothpaste (1100 ppm F), aqueous solutions
Procedure: The effectiveness of compositions of the present invention containing an organophosphate was evaluated according to the following in vitro erosion cycling protocol.
Tooth (dentin or enamel) specimens are prepared by cutting 3 mm-4 mm cores from extracted, human teeth using a diamond core drill. The teeth, collected by local surgeons, are stored until use in a 5% Thymol solution maintained at room temperature. Specimens are mounted on lucite rods with a dental acrylic (Dura Base, Reliance Mfg. Co.) covering all sides except the surface. Course polishing with 600-grit silicon carbide-water slurry is used to remove approximately 50 microns of the outer specimen surface to ensure homogeneity among specimens. Specimens are then polished with gamma alumina (Buehler No. 3, B Gamma Micropolish Alumina) to a mirror-like finish.
Approximately ⅔ of the surface of each specimen is then covered with an acid resistant nail polish (placed in a mesial-distal fashion), leaving the center portion exposed as a treatment window. Covered portions remain covered with the acid-resistant nail polish throughout the experiment, serving as the control (untreated) areas for later microradiographic analysis. Specimens are randomly assigned to one of four treatment groups (4 specimens/group).
Each group of specimens is placed in 20 ml of fresh, pooled human saliva for at least one hour to form an initial layer of pellicle on the specimen surfaces prior to first day of treatment. To begin the treatment phase, aqueous solutions of the test organophosphates and dentifrice slurry (1:3) of the control fluoride toothpaste are prepared in fresh, pooled human saliva. Each treatment cycle consists of: dentifrice slurry (2 min)→rinse in deionized distilled H2O→saliva (1 hour)→erosion challenge (10 min)→rinse in ddiH2O→saliva. There are 4 treatments per day for a total of five treatment days. Dentifrice treatments consist of immersing the specimens into the dentifrice slurry for two minutes while specimens rotate at 75 rpm. The erosion challenge consists of soaking each treatment group in 12 ml of 1% Citric acid (at room temperature). At any time specimens are not in treatment, they remain in 20 ml of pooled, human saliva (stirred). The saliva is refreshed 3×/day. At night, each group of specimens remains immersed in saliva (stirred at room temperature).
After 5 days of treatment, thin cross-sections (80-120 μm thick) of each specimen are removed for assessment using standardized transverse microradiography (TMR) techniques. The exposed, treated area of each specimen is assessed with respect to complete mineral loss (erosion). Results with simple aqueous solutions of various alkyl phosphate compounds are presented in Table 1 as depth (in microns) of total mineral loss from the original specimen surface using the covered (untreated) areas as anatomical reference points. For comparison, percent reduction in surface mineral loss is calculated relative to water or fluoride containing compositions.

[2] = compatibility of organophosphate additives with stannous fluoride solutions: visual inspection and soluble tin in supernatant; assay type: physicochemical
Procedure: Aqueous formulations of polyvalent metal antibacterial agents were prepared and evaluated for clarity, chemical content and performance when mixed with various organophosphate additives as described above. The compositions comprise stannous fluoride as an example of polyvalent metal cation in combination with sodium gluconate or sodium tripolyphosphate as stabilizer and organophosphate additives. The compositions also contained zinc. […] Following addition of additives, the solutions were immediately inspected for any visual changes and then analyzed for soluble tin in the supernatants after centrifugation.

[3] = tested on: total aerobes (pooled saliva inoculum); assay: bacterial time kill assay of CPC mouthrinse formulations; assay type: cell-based; conditions: 30 seconds
[4] = stannous fluoride/sodium gluconate solution, additive 1.0%
[5] = stannous fluoride/sodium tripolyphosphate solution, additive 1.0%
[6] = mouthrinse: organophosphate additive 0.05%, CPC 0.05%
[7] = mouthrinse: organophosphate additive 0.1%, CPC 0.1%
[8] = 0.454% stannous fluoride/3.0% sodium tripolyphosphate solution, additive 2.0%
[9] = stannous fluoride/sodium gluconate solution, additive 0.5%
[10] = 0.454% stannous fluoride/0.6% sodium gluconate solution, additive 2.0%
[11] = stannous fluoride/sodium gluconate solution, additive 0.2%
[12] = stannous fluoride/sodium tripolyphosphate solution, additive 0.08%

Substance: Laureth 3 phosphate [Foamphos L-3]
- Surface Loss [1]: 13.25 μm
- % reduction vs. regular F control [1]: 60.74%
- Soluble Tin [2, 4]: 1371 ppm
- Visual Inspection [2, 4]: Slight precipitate
- Soluble Tin [2, 5]: 3496 ppm
- Visual Inspection [2, 5]: Slight hazy
- Log Reduction vs. water control [3, 6]: 2.04
- Log Reduction vs. water control [3, 7]: 2.05

Substance: Laureth-1 phosphate [MAP L210]
- Surface Loss [1]: 25.75 μm
- % reduction vs. regular F control [1]: 23.70%
- Soluble Tin [2, 8]: 1888 ppm
- Visual Inspection [2, 8]: Slight precipitate
- Soluble Tin [2, 9]: 1419 ppm
- Visual Inspection [2, 9]: Slight precipitate

Substance: Laureth-9 phosphate [Foamphos L-9]
- clarity of stannous fluoride solutions (in words) [2]: clear solutions
- soluble stannous (in words) [2]: high levels of soluble stannous
- Soluble Tin [2, 10]: 3145 ppm
- Visual Inspection [2, 10]: Slight hazy
- Soluble Tin [2, 8]: 2511 ppm
- Visual Inspection [2, 8]: Clear
- Log Reduction vs. water control [3, 6]: 2.76
- Log Reduction vs. water control ([3]; mouthrinse: organophosphate additive 0.1%, CPC 0.05%): 2.76
- Log Reduction vs. water control [3, 7]: 2.76

Substance: PPG5 ceteareth-10 phosphate [CrodaphosSG]
- Surface Loss [1]: 18.50 μm
- % reduction vs. regular F control [1]: 45.19%

Substance: Potassium C12/13 phosphate [MAP 230K]
- Surface Loss [1]: 10.50 μm
- % reduction vs. regular F control [1]: 68.89%
- Soluble Tin [2, 11]: 2015 ppm
- Visual Inspection [2, 11]: Slight precipitate
- Soluble Tin [2, 12]: 2814 ppm
- Visual Inspection [2, 12]: Slight precipitate
- Log Reduction vs. water control ([3]; mouthrinse: organophosphate additive 0.0335%, CPC 0.0165%): −0.05
- Log Reduction vs. water control ([3]; mouthrinse: organophosphate additive 0.04%, CPC 0.01%): −0.01

Substance: Sodium diLaureth-10 phosphate [DLP-10]
- Soluble Tin [2, 10]: 2886 ppm
- Visual Inspection [2, 10]: Clear

Substance: Trilaureth-4 phosphate [Hostaphat KL 340D]
- Surface Loss [1]: 22.50 μm
- % reduction vs. regular F control [1]: 33.33%
